Each structure is given as a SMILES string. Counter-ions that a name gives are not always drawn.

Consider nine compounds from patent US7491825B2, “Basic non-peptide bradykinin antagonists and pharmaceutical compositions therefrom” (Menarini Ricerche S.p.A., priority 2002, dated 2009).

The target of one test is T1, human B2 receptor (Homo sapiens, UniProt P30411).
T1 construct: human B2 receptor expressed in human fibroblasts W138; endogenous in cells; host or cells: human fibroblasts W138 (WI-38)
T1 sequence (P30411 1-391): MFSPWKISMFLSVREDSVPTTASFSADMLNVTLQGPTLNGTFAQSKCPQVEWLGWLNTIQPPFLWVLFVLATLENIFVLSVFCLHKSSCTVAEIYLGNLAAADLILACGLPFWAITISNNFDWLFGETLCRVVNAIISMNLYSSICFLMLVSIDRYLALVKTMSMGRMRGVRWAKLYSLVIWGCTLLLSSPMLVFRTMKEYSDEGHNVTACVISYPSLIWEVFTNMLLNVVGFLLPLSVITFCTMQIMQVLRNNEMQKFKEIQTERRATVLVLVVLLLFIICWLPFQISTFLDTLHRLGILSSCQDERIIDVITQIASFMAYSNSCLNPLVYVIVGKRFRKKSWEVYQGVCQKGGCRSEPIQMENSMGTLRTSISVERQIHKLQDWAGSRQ
In words: binding to the human B2 receptor expressed in human fibroblasts W138.
Conditions: not given
The source says: In the following the binding values are reported expressed as pKi.
Compound `CCN=C(NCC)NCCC[C@H](N)C(=O)N1CCN(C(=O)C(C)(C)NS(=O)(=O)c2ccc(Cl)c(COc3cccc4ccc(C)nc34)c2Cl)CC1` [Example 41] had a Ki of 0.501 nM.

Still in this test, the particulars now being: human B2 receptor expressed in human fibroblasts W138.
As for `Cc1cc(C)c2cccc(OCc3c(Cl)ccc(S(=O)(=O)NC4(C(=O)N5CCN(C(=O)C[C@H](CCCNC(=NC6CCCCC6)NC6CCCCC6)NC(=NC6CCCCC6)NC6CCCCC6)CC5)CCCC4)c3Cl)c2n1.O=C(O)C(F)(F)F.O=C(O)C(F)(F)F.O=C(O)C(F)(F)F` [Example 80, N-(1-{4-[3-(S),6-Bis-(N′,N″-dicyclohexyl-guanidino)-hexaoyl]-piperazine-1-carbonyl}-cyclopentyl)-2,4-dichloro-3-(2,4-dimethyl-quinolin-8-yloxymethyl)-benzensulfonamide tris trifluoroacetate], the pKi is 9.2.

`Cc1cc(C)c2cccc(OCc3c(Cl)ccc(S(=O)(=O)NC4(C(=O)N5CCN(C(=O)CCC[N+](C)(C)C)CC5)CCCC4)c3Cl)c2n1` [Example 83, N-{1-[4-(4-Trimethylammonium-butanoyl)-piperazine-1-carbonyl]-cyclopentyl}-2,4-dichloro-3-(2,4-dimethyl-quinolin-8-yloxymethyl)-benzenesulfonamide bis trifluoroacetate]: the pKi is on record as 9.4.

On to `Cc1cc(C)c2cccc(OCc3c(Cl)ccc(S(=O)(=O)NC4(C(=O)N5CCN(C(=O)[C@H](CCCCN)[N+](C)(C)C)CC5)CCCC4)c3Cl)c2n1` [Example 90, N-[1-[4-(2-(S)-Trimethylammonium-6-amino-hexanoyl)-piperazin-1-yl]-cyclopentyl]-2,4-dichloro-3-(2,4-dimethyl-quinolin-8-yloxymethyl)-benzenesulfonamide tris trifluoroacetate], for which the pKi amounted to 9.9.

Still in this test, the particulars now being: human B2 receptor expressed in human fibroblasts W138; read-out: pKi (converted).
Regarding `Cc1ccc2cccc(OCc3c(Cl)ccc(S(=O)(=O)NC(C)(C)C(=O)N4CCN(C(=O)C[C@@H](N)CCCN(C)C)CC4)c3Cl)c2n1` [Example 29, N-{2-[4-(3-(S)-Amino-6-dimethylamino-hexanoyl)-piperazin-1-yl]-1,1-dimethyl-2-oxo-ethyl}-2,4-dichloro-3-(2-methyl-8-quinolinoxymethyl)-benzenesulfonamide tris trifluoroacetate], the Ki was 0.631 nM.

`Cc1ccc2cccc(OCc3c(Cl)ccc(S(=O)(=O)NC(C)(C)C(=O)N4CCN(C(=O)CNC5CCNCC5)CC4)c3Cl)c2n1` [Example 26, N-{2-[4-[N-(4-Piperidyl)glycyl]-piperazin-1-yl]-1,1-dimethyl-2-oxo-ethyl}-2,4-dichloro-3-(2-methyl-8-quinolinoxymethyl)-benzenesulfonamide tris trifluoroacetate]: the Ki was 0.501 nM.

Regarding `CNCCCCCNCC1CCN(C(=O)C2(NS(=O)(=O)c3ccc(Cl)c(COc4cccc5c(C)cc(C)nc45)c3Cl)CCCC2)CC1` [Example 106, 2,4-Dichloro-3-(2,4-dimethyl-quinolin-8-yloxymethyl)-N-(1-{4-[(5-methylamino-pentylamino)-methyl]-piperidine-1-carbonyl}-cyclopentyl)-benzenesulfonamide tris trifluoroacetate], the Ki was 0.398 nM.

For the compound `Cc1ccc2cccc(OCc3c(Cl)ccc(S(=O)(=O)NC(C)(C)C(=O)N4CCN(C(=O)C[C@@H](N)CCCCN(C)C)CC4)c3Cl)c2n1` [Example 30, N-{2-[4-(3-(S)-Amino-7-dimethylamino-heptanoyl)-piperazin-1-yl]-1,1-dimethyl-2-oxo-ethyl}-2,4-dichloro-3-(2-methyl-8-quinolinoxymethyl)-benzenesulfonamide tris trifluoroacetate], the Ki was 0.794 nM.

Regarding `Cc1cc(C)c2cccc(OCc3c(Cl)ccc(S(=O)(=O)NC4(C(=O)N5CCN(C(=O)[C@@H](N)CC6CCNCC6)CC5)CCCC4)c3Cl)c2n1` [Example 81, N-{1-[4-(2-(S)Amino-3-piperidin-4-yl-propionyl)-piperazine-1-carbonyl]-cyclopentyl}-2,4-dichloro-3-(2,4-dimethyl-quinolin-8-yloxymethyl)-benzenesulfonamide tris trifluoroacetate], the Ki is 0.631 nM.
